Experimental data published in patent US20240158447A1, “PEPTIDES FOR USE IN THE TREATMENT OR PREVENTION OF MYOCARDIAL DAMAGE” (THE UNIVERSITY OF WESTERN AUSTRALIA, priority 2020, published 2024).
Entries after “also recorded” stand apart in the source; their conditions may differ.

Columns and labels:
[1] = tested on: wildtype cardiac myocytes; test: Mitochondrial flavoprotein oxidation after BayK(−), wildtype cardiac myocytes (Example 6); assay type: cell-based, mouse; details: wild type hearts, FIG. 4
Method: (§1) Adult male C57BL/6J mice were anesthetized with pentobarbitone sodium (240 mg/kg) via intraperitoneal injection prior to excision of the heart. Ventricular myocytes were isolated. Mouse hearts were cannulated onto a Langendorff apparatus via the aorta and perfused retrogradely with Krebs-Henseleit Buffer (KHB) containing (in mM): 120 NaCl, 25 NaHCO3, 4.8 KCl, 2.2 MgSO4, 1.2 NaH2PO4 and 11 glucose (pH=7.35 with O2/CO2 at 37° C.) for 4 min at 37° C. Hearts were then perfused with KHB supplemented with 2.4 mg/ml collagenase B for 3 min, then 8 min perfusion in the presence of 40 μM calcium. Following perfusion, aorta and atria were removed, and ventricles gently teased apart and triturated to dissociate myocytes into suspension. […]
(§2) All in vitro studies were performed in freshly isolated myocytes at 37° C. […] Following a 20 min incubation with 0.5-1 μM AID(S)-TAT, AID-TAT, peptide 6 or peptide 7, fluorescent signal of individual myocytes was quantified using Metamorph 6.3 to measure signal intensity of manually traced cell regions. […]
Autofluorescence was used to measure flavoprotein oxidation in cardiac myocytes based on previously described methods (480 nm ex, 535 nm em). […] Fluorescence was reported as a percentage from the baseline pre-treatment average.

[2] = tested on: myocytes isolated from cTnI-G203S mutant mouse hearts; test: Mitochondrial flavoprotein oxidation after BayK(−), myocytes from HCM hearts (Example 6); assay type: cell-based; details: FIG. 5
Method: FIG. 5 presents the effect of mutant peptides on flavoprotein oxidation, a measure of metabolic activity and oxygen consumption in myocytes isolated from cTnI-G203S mutant mouse hearts that are hypertrophic.
All in vitro studies were performed in freshly isolated myocytes at 37° C. […] Following a 20 min incubation with 0.5-1 μM AID(S)-TAT, AID-TAT, peptide 6 or peptide 7, fluorescent signal of individual myocytes was quantified using Metamorph 6.3 to measure signal intensity of manually traced cell regions. An equivalent region not containing cells was used for background and was subtracted.
Autofluorescence was used to measure flavoprotein oxidation in cardiac myocytes based on previously described methods (480 nm ex, 535 nm em). Fluorescent images were taken at 1 min intervals with 1 s exposure before and after exposure to L-type Ca2+ channel agonist BayK(−). Fluorescence was reported as a percentage from the baseline pre-treatment average.

[3] = tested on: wild type cardiac myocytes; test: Intracellular superoxide (DHE) after H2O2 in cardiac myocytes; assay type: cell-based, mouse; details: 20 min incubation with 0.5-1 μM peptide; 30 μM H2O2 5 min; FIG. 3(b)
Method: as §1, §2
Superoxide generation was assessed in cardiac myocytes using the fluorescent indicator dihydroethidium (DHE, 5 μM, 515-560 nm ex filter, 590 long pass em, Merck). […] Fluorescence was reported as percentage change in the slope of the signal measured at 20-40 min (treatment) over 1-10 min (pre-treatment).

[4] = tested on: wild type cardiac myocytes; test: Intracellular calcium (Fura-2) after H2O2 in cardiac myocytes; assay type: cell-based, mouse; details: 20 min incubation with 0.5-1 μM peptide; 30 μM H2O2 5 min; FIG. 3(a)
Method: as §1, with “calcium.” for “calcium. Following perfusion, aorta and atria were removed, and ventricles gently teased apart and triturated to dissociate myocytes into suspension.”
as §2
Intracellular calcium was monitored in cardiac myocytes using the fluorescent indicator Fura-2 AM (Fura-2, 1 μM, ex 340/380 nm, em 510 nm, Molecular Probes). […] Fluorescence at 340/380 nm excitation and 510 nm emission were measured at 1 minute intervals with an exposure of 50 ms before and after exposure to 30 μM H2O2 (5 min) and 10 U/ml catalase (5 min). Ratiometric 340/380 nm signal was quantified and reported as a percentage from the baseline pre-treatment average.

[5] = target: T1, L-type Ca^2+ channel β2 subunit (Homo sapiens, UniProt Q08289); test: Binding competition assay of variant peptides for the β2 subunit (AID-coated beads, heart lysate, SDS-PAGE); details: competition with bead-bound AID peptide, whole heart lysate, immunoblot densitometry; FIG. 2
T1 construct: from tissue; host or cells: whole heart (cardiac) lysate
T1 sequence (Q08289 whole entry): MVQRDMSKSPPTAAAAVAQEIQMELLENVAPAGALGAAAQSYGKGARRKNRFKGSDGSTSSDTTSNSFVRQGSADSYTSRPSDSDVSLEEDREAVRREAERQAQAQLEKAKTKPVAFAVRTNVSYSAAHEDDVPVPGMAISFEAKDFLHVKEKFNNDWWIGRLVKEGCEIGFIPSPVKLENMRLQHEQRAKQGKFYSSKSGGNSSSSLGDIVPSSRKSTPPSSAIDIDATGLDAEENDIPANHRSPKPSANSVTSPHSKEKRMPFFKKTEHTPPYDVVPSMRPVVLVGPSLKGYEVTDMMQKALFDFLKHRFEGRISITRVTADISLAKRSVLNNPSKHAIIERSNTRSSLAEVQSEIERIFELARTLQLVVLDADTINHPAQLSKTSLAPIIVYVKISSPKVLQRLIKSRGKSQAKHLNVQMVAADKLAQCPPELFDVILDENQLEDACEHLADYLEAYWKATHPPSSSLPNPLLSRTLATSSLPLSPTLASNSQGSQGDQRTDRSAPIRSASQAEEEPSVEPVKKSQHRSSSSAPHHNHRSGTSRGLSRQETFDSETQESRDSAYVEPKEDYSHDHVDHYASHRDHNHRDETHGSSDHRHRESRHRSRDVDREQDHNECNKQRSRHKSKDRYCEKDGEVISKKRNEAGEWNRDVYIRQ
Method: The affinity of each of the variant peptides to the β2 subunit was investigated through binding competition assays.
PureProteome™ NHS FlexiBind Magnetic Beads (Cat. #LSKMAGN04, Merck) were used following manufacturer recommendations. Aminohexanoic acid linked AID peptide was bound to the NHS flexibind magnetic beads at a concentration of more than 2 mg/mL to obtain saturation of the beads with peptide. Beads were first primed with an equilibration buffer (1 mM HCL) to prepare them for binding. The Ahx-AID peptide was dissolved in wash/coupling buffer (PBS, pH 7.4) and added to the beads. The beads-AID peptide mixture was left to mix uniformly on a multiplate shaker at a speed of 300 rpm at room temperature for 2 hours. To reduce non-specific binding the beads were incubated in Quench Buffer (100 mM Tris-HCl, 150 mM NaCl, pH 8.0) at room temperature for 1 hour.
The AID-peptide bound beads were split into 5 aliquots for the 5 samples prepared in Table 5. The whole heart lysate added to each of the peptide-bound beads to allow competitive binding for 2 hours at room temperature.
Upon completion, the conjugate was washed in coupling buffer, to remove unbound fraction. SDS sample buffer was added to the beads, with the tubes then heated for 5 minutes at 95° C. The eluted sample stored at −20° C. to be run through sodium dodecyl sulfate-polyacrymalide gel electrophoresis (SDS-PAGE) to determine the binding affinity of each of the variants.
The use of streptavidin dynabeads and biotinylated peptide was developed to improve the binding affinity assays. The peptide was initially biotinylated using EZ-link amine-PEG11-biotin (Spacer arm: 53.2 Å, Thermofisher Scientific, Cat. #26136) which was dissolved in 0.1M MES buffer ((2-N-morpholino)-ethanesulfonic acid) at a concentration of 1 mM. Just prior to the reaction, 0.1M EDC (N-(3-Dimethylaminopropyl)-N′-ethylcarbodiimide hydrochloride) was dissolved in MES buffer. In order to achieve complete biotinylation of the AID peptide, a 50× molar excess of biotin to peptide was required, with the total volumes of each component required shown in Table 6.
Each 78 μL aliquot of the biotinylated peptide shown in […] was enough for 6 reactions, covering the range of concentrations in which the heart lysate was again prepared with varying concentrations of the variant AID peptides according to Table 7.
The 78 μL aliquot of biotinylated AID-peptide was mixed with streptavidin dynabeads (1 mg Dynabeads per every 200 pmol biotinylated peptide) for half an hour at room temperature. The heart lysate ([…]) was incubated with the variant peptides at room temperature for 2 hours. After removing all unbound peptide from the beads, they were mixed with the pre-bound heart lysate for 2 hours at room temperature. The unbound fraction was removed. […]

QQQEEDLKGYLDWITQAE (Variant P7)
flavoprotein oxidation in comparison with AID-TAT peptide [1]: statistically significant reduction in flavoprotein oxidation in comparison with AID-TAT peptide
flavoprotein oxidation in comparison with AID-TAT peptide [2]: statistically significant reduction in flavoprotein oxidation in comparison with AID-TAT peptide
H2O2 induced superoxide production (DHE) [3]: more effective at decreasing H2O2 induced increases in intracellular Ca^2+ (Fura 2) and superoxide production (DHE) than AID-TAT
H2O2 induced increase in intracellular Ca2+ (Fura 2) [4]: altered the increase in Fura 2 following H2O2; also recorded: more effective at decreasing H2O2 induced increases in intracellular Ca^2+ (Fura 2) and superoxide production (DHE) than AID-TAT
binding affinity (K0.5) for the target β2 subunit versus the original AID peptide [5]: greater binding affinity (lower K0.5)
